According to the supplement of paper PMC7840683:
Counter-ions that a name gives are not always drawn. ± gives the standard deviation of the averaged measurements.

Tested on: HepaRG
Experiment: LDH release cytotoxicity, % of total lysis control; higher = more cytotoxic
Conditions: 48 h
Summary of the method: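 Duplicate wells of single-lot HepaRG cells, grown on collagen I-coated 96-well plates, received eight-point half-log series of test chemicals with 100 µM as the top concentration. Exposure lasted 48 h in serum-free induction medium with 0.5% DMSO, while total lysis wells received 0.1% Triton X. Resorufin fluorescence (CytoTox-ONE, Tecan Safire) was used to quantify LDH leaked into 50 µL of spent medium. Values for percent cytotoxicity were normalized to on-plate vehicle and total lysis controls and averaged across the duplicates.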

| SMILES | LDH release cytotoxicity (0.03162 µM) | LDH release cytotoxicity (0.1 µM) | LDH release cytotoxicity (0.3162278 µM) | LDH release cytotoxicity (1 µM) | LDH release cytotoxicity (3.16228 µM) | LDH release cytotoxicity (10 µM) | LDH release cytotoxicity (31.6228 µM) | LDH release cytotoxicity (100 µM) | other results |
| --- | --- | --- | --- | --- | --- | --- | --- | --- | --- |
| CCOC(=O)OC(C)OC(=O)c1ccc2c(c1)cc(C(=O)NC1CCN(C(C)C)CC1)n2Cc1cc(-c2ccc(Cl)s2)on1 (stereo not drawn) [AVE6324] |  |  |  |  |  |  |  |  | LDH release cytotoxicity (0.02988 µM): -0.39 ± 1.6%; LDH release cytotoxicity (0.0945 µM): -0.573 ± 0.22%; LDH release cytotoxicity (0.298835 µM): -0.553 ± 1.2%; LDH release cytotoxicity (0.945 µM): -1.09 ± 0.69%; LDH release cytotoxicity (2.98835 µM): -0.186 ± 0.77%; LDH release cytotoxicity (9.45 µM): 1.15 ± 0.64%; LDH release cytotoxicity (29.8835 µM): 1.55 ± 1.8%; LDH release cytotoxicity (94.5 µM): 48.4 ± 7.1% |
| CN1CCN(Cc2cc(-c3ccc4nc(O)oc4c3)co2)C(c2ccc(F)cc2)C1 (stereo not drawn) [AVE8488] | -0.724 ± 0.27% | -1.47 ± 0.17% | -0.841 ± 0.31% | -0.702 ± 0.13% | -1.52 ± 0.25% | -0.46 ± 0.076% | 0.998 ± 0.15% | 9.54 ± 0.2% |  |
| CCCOc1sc(C(=O)N2CCC(c3cc(CN)ccc3F)CC2)c(C)c1Br [AVE8923] |  |  |  |  |  |  |  |  | LDH release cytotoxicity (0.002846 µM): 0.846 ± 0.37%; LDH release cytotoxicity (0.009 µM): -1.04 ± 0.12%; LDH release cytotoxicity (0.02846 µM): -1.76 ± 0.7%; LDH release cytotoxicity (0.09 µM): -1.75 ± 0.022%; LDH release cytotoxicity (0.284605 µM): -1.48 ± 0.47%; LDH release cytotoxicity (0.9 µM): -1.21 ± 0.12%; LDH release cytotoxicity (2.84605 µM): -0.426 ± 0.15%; LDH release cytotoxicity (9 µM): -0.0454 ± 0.26% |
| O=C(O)c1ccccc1-n1cc(C(=O)O)c(=O)c2cc(Nc3c(F)cc(F)cc3Cl)c(Cl)cc21 [AVE9423] | -1.33 ± 0.48% | -1.38 ± 0.094% | -2.06 ± 0.7% | -2.38 ± 0.63% | -2.31 ± 0.53% | -2.38 ± 0.67% | -1.42 ± 1.4% | -1.52 ± 0.52% |  |
| CC[C@H](C)[C@H]1O[C@]2(C=C[C@@H]1C)C[C@@H]1C[C@@H](C/C=C(\C)[C@@H](O[C@H]3C[C@H](OC)[C@@H](O[C@H]4C[C@H](OC)[C@@H](O)[C@H](C)O4)[C@H](C)O3)[C@@H](C)/C=C/C=C3\CO[C@@H]4[C@H](O)C(C)=C[C@@H](C(=O)O1)[C@]34O)O2.CO[C@H]1C[C@H](O[C@H]2[C@H](C)O[C@@H](O[C@@H]3/C(C)=C/C[C@@H]4C[C@@H](C[C@]5(C=C[C@H](C)[C@@H](C(C)C)O5)O4)OC(=O)[C@@H]4C=C(C)[C@@H](O)[C@H]5OC/C(=C\C=C\[C@@H]3C)[C@]54O)C[C@@H]2OC)O[C@@H](C)[C@@H]1O [Abamectin] |  |  |  |  |  |  |  |  | LDH release cytotoxicity (0.0191318 µM): -1.6 ± 0.53%; LDH release cytotoxicity (0.0605 µM): -0.607 ± 0.021%; LDH release cytotoxicity (0.191318 µM): -1.03 ± 0.44%; LDH release cytotoxicity (0.605 µM): -0.868 ± 0.18%; LDH release cytotoxicity (1.913178 µM): -1.21 ± 0.25%; LDH release cytotoxicity (6.05 µM): -1.13 ± 0.81%; LDH release cytotoxicity (19.1318 µM): 12.3 ± 1.8%; LDH release cytotoxicity (60.5 µM): 63.56 ± 0.26% |
| c1cc2c3c(cccc3c1)CC2 [Acenaphthene] | -0.325 ± 0.66% | -0.376 ± 0.039% | 0.475 ± 0.27% | -0.576 ± 0.93% | -0.0334 ± 0.48% | 0.635 ± 0.44% | 0.885 ± 1.1% | 1.86 ± 0.3% |  |
| C1=Cc2cccc3cccc1c23 [Acenaphthylene] |  | -2.98 ± 1.1% |  | -2.28 ± 0.87% | -2.7 ± 0.39% | -2.757 ± 0.027% | -1.56 ± 0.24% | 1 ± 0.85% | LDH release cytotoxicity (0.031623 µM): -0.662 ± 0.2%; LDH release cytotoxicity (0.316228 µM): -2.7 ± 0.37% |
| COP(=O)(NC(C)=O)SC (stereo not drawn) [Acephate] | -0.866 ± 0.12% | -0.804 ± 0.21% | -0.558 ± 0.78% | -0.625 ± 0.92% | -0.512 ± 0.7% | 0.394 ± 0.4% | 0.786 ± 1.8% | 1.92 ± 1% |  |
| CC(N)=O [Acetamide] | -1.42 ± 0.94% | -0.0289 ± 1.8% | -1.35 ± 0.33% | -2.5 ± 0.18% | -2.19 ± 1.4% | -0.925 ± 0.15% | -0.0914 ± 0.22% | 1.3 ± 0.62% |  |
| CC(=O)Nc1ccc(O)cc1 [Acetaminophen] | -3.14 ± 0.072% | -3.633 ± 0.0048% | -2.81 ± 0.035% | -3.06 ± 0.61% | -3.13 ± 0.24% | -3.2 ± 0.3% | -2.512 ± 0.0032% | -1.82 ± 0.68% |  |
| CC(=NC#N)N(C)Cc1ccc(Cl)nc1 [Acetamiprid] | -2.01 ± 1.8% | -2.67 ± 0.84% | -2.61 ± 0.31% | -2.64 ± 0.13% | -2.01 ± 0.025% | -2.44 ± 1.2% | -2.262 ± 0.022% | 0.254 ± 0.19% |  |
| CC(=O)O [Acetic acid] |  |  |  |  |  |  |  |  | LDH release cytotoxicity (0.0317809 µM): -1.92 ± 1.2%; LDH release cytotoxicity (0.1005 µM): -2.2 ± 1.2%; LDH release cytotoxicity (0.317809 µM): -1.18 ± 0.69%; LDH release cytotoxicity (1.005 µM): -1.23 ± 1.5%; LDH release cytotoxicity (3.17809 µM): -0.0523 ± 1.1%; LDH release cytotoxicity (10.05 µM): -0.22 ± 0.88%; LDH release cytotoxicity (31.7809 µM): -0.0673 ± 1.4%; LDH release cytotoxicity (100.5 µM): 1.25 ± 1.2% |
| CCOCN(C(=O)CCl)c1c(C)cccc1CC [Acetochlor] | -0.907 ± 0.26% | -1.94 ± 0.45% | -0.877 ± 0.019% | -0.999 ± 0.47% | -1.55 ± 0.19% | -0.606 ± 0.56% | 0.268 ± 0.58% | 56.1 ± 2.4% |  |
| CC(=O)c1ccccc1 [Acetophenone] | -2.51 ± 1.2% | -2.44 ± 0.99% | -2.72 ± 0.4% | -2 ± 1.3% | -2.1 ± 0.76% | -1.71 ± 1% | -1.38 ± 0.1% | -0.356 ± 0.56% |  |
| CCCCOC(=O)CC(CC(=O)OCCCC)(OC(C)=O)C(=O)OCCCC [Acetyl tributyl citrate] | -1.13 ± 2% | -1.34 ± 0.08% | -1.35 ± 0.17% | -1.86 ± 1.8% | -1.7 ± 0.77% | -0.33 ± 1.3% | -0.458 ± 0.058% | 0.439 ± 0.83% |  |
| CCOC(=O)CC(CC(=O)OCC)(OC(C)=O)C(=O)OCC [Acetyltriethyl citrate] | -2.01 ± 1.3% | -1.76 ± 0.41% | -1.48 ± 0.41% | -1.13 ± 1.1% | -0.615 ± 0.31% | -1.09 ± 1.7% | 0.655 ± 0.037% | 0.942 ± 0.48% |  |
| CSC(=O)c1cccc2nnsc12 [Acibenzolar-S-methyl] | -0.11 ± 0.5% | -0.574 ± 0.66% | -0.682 ± 0.56% | -0.324 ± 0.3% | -0.302 ± 0.16% | -0.414 ± 0.83% | 0.737 ± 0.21% | 1.4 ± 0.15% |  |
| C=CC(N)=O [Acrylamide] | -0.83 ± 0.15% | -1.21 ± 0.58% | -1.5 ± 0.3% | -1.596 ± 0.0065% | -1.78 ± 0.096% | -0.843 ± 0.56% | -1.75 ± 0.16% | -0.493 ± 0.11% |  |
| CCc1cccc(CC)c1N(COC)C(=O)CCl [Alachlor] |  | -1.83 ± 1.3% |  | -2.4 ± 0.71% | -2.62 ± 0.18% | -2.23 ± 0.35% | -2.51 ± 0.88% | -0.425 ± 0.47% | LDH release cytotoxicity (0.031623 µM): -1.16 ± 0.26%; LDH release cytotoxicity (0.316228 µM): -2.33 ± 2.1% |
| CSC(C)(C)CN=O [Aldicarb oxime] | -1.16 ± 1.1% | -1.16 ± 0.73% | -0.361 ± 1.2% | 0.251 ± 0.83% | -0.674 ± 0.8% | 0.43 ± 0.56% | 0.225 ± 0.043% | 0.822 ± 0.091% |  |
| CNC(=O)ON=CC(C)(C)SC [Aldicarb] | -1.61 ± 1.2% | -1.37 ± 0.9% | -2.06 ± 0.65% | -1.68 ± 0.72% | -1.686 ± 0.0048% | -0.703 ± 0.55% | -1.04 ± 1% | -0.341 ± 0.039% |  |
| ClC1=C(Cl)C2(Cl)C3C4C=CC(C4)C3C1(Cl)C2(Cl)Cl (stereo not drawn) [Aldrin] | -1.03 ± 0.13% | -1.22 ± 0.11% | -1.42 ± 0.63% | -2.25 ± 0.36% | -1.19 ± 0.49% | -0.76 ± 1.3% | -1.01 ± 0.71% | 3.93 ± 0.095% |  |
| C=CCC1=C(C)C(OC(=O)C2C(C=C(C)C)C2(C)C)CC1=O (stereo not drawn) [Allethrin] | 0.254 ± 1.2% | -0.919 ± 0.37% | -1.19 ± 0.46% | -0.231 ± 0.68% | -1.87 ± 0.067% | -1.69 ± 0.11% | -0.447 ± 0.21% | -0.904 ± 0.67% |  |
| CCNc1nc(NC(C)C)nc(SC)n1 [Ametryn] | -0.705 ± 0.77% | -1.179 ± 0.0064% | -1.07 ± 0.34% | -1.09 ± 0.47% | -1.44 ± 0.021% | -0.756 ± 0.46% | -0.965 ± 0.14% | -0.133 ± 0.12% |  |
| Nc1nc(N)c2nc(CNc3ccc(C(=O)NC(CCC(=O)O)C(=O)O)cc3)cnc2n1 (stereo not drawn) [Aminopterin] | -11.8 ± 0.096% | -7.61 ± 0.6% | -7.45 ± 1.3% | -7.83 ± 0.65% | -7.31 ± 0.2% | -9.44 ± 0.67% | -9.84 ± 0.9% | -9.19 ± 0.42% |  |
| Cc1ccc(N=CN(C)C=Nc2ccc(C)cc2C)c(C)c1 [Amitraz] | -0.945 ± 0.9% | -1.23 ± 0.17% | -2.67 ± 0.32% | -1.98 ± 0.68% | -2.06 ± 0.065% | -1.45 ± 0.35% | -0.79 ± 0.2% | 1.17 ± 1.8% |  |
